Laboratory results published in patent US5912405A, “Enhancers such as acetosyringone” (Novo Nordisk A/S, priority 1994, dated 1999).

Target: T1, Coprinus cinereus peroxidase (CiP) (Coprinopsis cinerea, UniProt P28314)
T1 construct: made in house
T1 sequence (P28314 21-363): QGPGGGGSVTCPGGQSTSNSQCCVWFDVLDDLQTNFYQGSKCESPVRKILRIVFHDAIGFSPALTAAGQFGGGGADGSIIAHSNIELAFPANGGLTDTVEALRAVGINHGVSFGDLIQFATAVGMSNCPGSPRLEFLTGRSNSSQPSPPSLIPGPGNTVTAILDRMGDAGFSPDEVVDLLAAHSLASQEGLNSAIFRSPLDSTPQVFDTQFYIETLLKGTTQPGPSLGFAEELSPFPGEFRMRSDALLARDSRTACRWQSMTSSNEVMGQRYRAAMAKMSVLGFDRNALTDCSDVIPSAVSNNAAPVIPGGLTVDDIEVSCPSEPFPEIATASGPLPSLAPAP
Assay: Initial bleaching of Chicago Sky Blue 6B (CSB) with Coprinus cinereus peroxidase and enhancers
Assay type: biochemical
Details: 5 μM enhancer, 20 μM H2O2, 30° C.
Method: The bleaching rate of Direct Blue 1 (DB1) by purified CiP was determined using the following conditions: […]
Reagents were mixed in a thermostated cuvette at 30° C. and the bleaching was started by addition of hydrogen peroxide. The bleaching was detected spectrophotometrically at 610 nm, which is the wavelength of the absorption peak of DB1. Bleaching was followed for 1 minute, and the initial reduction in absorbance, --ΔmAbs/minute, was determined.
Bleaching tests were performed in exactly the same way as described in Example 2 except that instead of using DB1 Chigaco Sky Blue (CSB) (obtainable from Aldrich) was used, and the following enhancers were tested: […]

Row | SMILES | Initial Bleaching of CSB with CiP (pH 8.5, 0.08 mg/l CiP) | Initial Bleaching of CSB with CiP (pH 10.5, 0.16 mg/l CiP)
1 | CCCCCCOC(=O)c1cc(OC)c(O)c(OC)c1 [hexylsyringate] | 276 -ΔmAbs/minute | 36 -ΔmAbs/minute
2 | CCOC(=O)C=Cc1cc(OC)c(O)c(OC)c1 [ethyl 3-(4-hydroxy-3,5-dimethoxyphenyl)acrylate] | 48 -ΔmAbs/minute | 48 -ΔmAbs/minute
3 | CCCCCCCCOC(=O)c1cc(OC)c(O)c(OC)c1 [octylsyringate] | 192 -ΔmAbs/minute | 15 -ΔmAbs/minute

Next, values leading:

Row | Initial Bleaching of CSB with CiP (pH 8.5, 0.08 mg/l CiP) | Initial Bleaching of CSB with CiP (pH 10.5, 0.16 mg/l CiP) | SMILES
4 | 228 -ΔmAbs/minute | 48 -ΔmAbs/minute | CCCCOC(=O)c1cc(OC)c(O)c(OC)c1 [butylsyringate]
5 | 240 -ΔmAbs/minute | 52 -ΔmAbs/minute | CCOC(=O)c1cc(OC)c(O)c(OC)c1 [ethylsyringate]
6 | 228 -ΔmAbs/minute | 60 -ΔmAbs/minute | CCCOC(=O)c1cc(OC)c(O)c(OC)c1 [propylsyringate]
